According to patent US6528098B2, “Preparation of a therapeutic composition” (Advanced Viral Research Corp., priority 1996, dated 2003):
“Also recorded” adds a separate entry of the source. No end group written: not given here.

What was measured:
[1] = test system: IL-8 secretion by U937 cells; test: IL-8 secretion by cultured U937 cells, ELISA; type: cell-based, human; conditions: for production of interlukin-8 (IL-8) in U937 cells: general statement; for up-regulation of IL-8 secretion compared with Product R: peptide solutions 2 mg/ml, equimolar mixture 4 mg/ml, final concentration 10% in culture media, FIG. 20
Procedure: (§1) Ammonium sulfate precipitation of Product U peptides: Product U samples are lyophilized and re-dissolved in 20% of original sample volume in water (5X concentrated). Ammonium sulfate crystals are added to the solution to reach 60% ammonium sulfate saturation (390 mg/ml solution). Gentle mixing solubilizes crystals. Protein precipitates appear after 30 mm to 1 hr incubation on ice and is centrifuged at 16,000×g for 30 min. at […]. The pellet is dissolved in 5% of original sample volume in water. The solution is desalted by gel filtration chromatography through a column of BioGel P-2. The column is eluted with 0.1X phosphate buffered saline (PBS). Only protein containing fractions are pooled and lyophilized.
(§2) Separation and isolation of two major neptide of Product R by gel ruhranon chromatography: A BioGel P-10 column (1.6 cm×52 cm) was equilibrated with 0.1X concentration of PBS. Two ml of 2X concentrated Product R was applied to the column, which was eluted with the same buffer at a flow rate of 25 mI/hr. Four mm. fractions were collected. All protein-containing fractions are analyzed by Sodium dodecyl sulfate polyacrilamide gel electrophoresis (SDS-PAGE). Fraction, containing primarily peptide A and peptide B are pooled separately and lyophilized. Peptide A pool contains very little contamination of the other peptide, however, the peptide B pool is highly enriched but still contains peptide A as a major contaminant. A reasonable estimate of peptide purity in the pools is >90% for peptide A and >75% for peptide B.
U937 cell culture: The U937 human hystiocytic lymphoma cell line was purchased from the American Type Culture Collection. Cells were thawed and maintained in logarithmic growth (5-9×10^5 cells/mL) in RPMI 1640 culture medium, supplemented with 10% fetal bovine serum, heat inactivated at 56° C. for 30 min, 2mM L-glutamine and 1x Penicillin-Streptomycin.
Product R or isolated peptide treatment: Cells (1.0×10^5/ml) are cultured in growth medium containing Product R, isolated purified peptide solution, mixed peptides solution or Dulbecco's PBS for 2 days. Following centrifugation, the culture supernatants are analyzed using chemokine ELISA kits. Final concentration of Product R in the culture medium was 10% (v/v). The ammonium sulfate precipitated peptides were reconstituted in culture medium to yield a 10 mg/ml solution. Two 2-fold dilutions were prepared, also using culture medium as diluent. These solutions were used at a final concentration of 10% in the U937 cell culture. The individual lyophilized peptides were reconstituted in endotoxin-free water to yield 2 mg/ml solutions (which is the approximate concentration of each peptide in Product R). An equimolar mixture of both peptides was prepared at a final concentration of 4 mg/ml. Both were used at a final concentration of 10% in the culture media for the assays.
(§3) Measurement of secreted IL-8 and MCP-1: The concentrations of IL-8 and MCP-1 in the culture supernatants are assayed by ELISA, using human IL-S ELISA kits (Endogen. Inc.) and Quantikine human MCP-1 ELISA kits (R&D Systems, Inc.), respectively, according to manufacturer's instructions (with slight modifications for the MCP-1 ELISA). […] Absorbances are measured on a PowerWave 200 Microplate Scanning Spectrophotometer. Dilutions of the standard protein supplied by each manufacturer are utilized to generate a four-parameter logistic fit standard curve, and the concentration of chemokine in each supernatant is determined by extrapolation.

[2] = target: T1, bovine pancreatic Ribonuclease A (Bos taurus, UniProt P61823); test: Treatment of Product R with ribonuclease A, SDS-PAGE on a 16% gel; type: physicochemical; design: key: “−” represents no substantial alteration of the stainable bands; “+” represents substantial alteration of the stainable bands; conditions: 37° C., about 1 hour
T1 construct: purchased ICN Biochemicals, USA
T1 sequence (P61823 27-150): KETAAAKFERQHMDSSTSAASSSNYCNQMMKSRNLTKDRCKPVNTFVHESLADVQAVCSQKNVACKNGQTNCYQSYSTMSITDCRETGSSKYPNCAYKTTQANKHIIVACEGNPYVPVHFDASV
Procedure: (§4) The biochemical properties of the peptides: Some biochemical properties of the silverstainable peptide components of Product R are analyzed using various catabolic enzymes, as described below:
The treatment with ribonuclease A (ICN Biochemicals, USA): Ribonuclease A is a pyrimidine specific endoribonuclease that acts on single stranded RNA. A Product R sample is incubated in a reaction buffer containing 10 mM Tris-HCl, pH 7.4, 3 mM MgCl2, and I mg/ml of bovine pancreatic Ribonuclease A at 37° C. for about 1 hour and subject to SDS-PAGE on a 16% gel. […] The resistance to ribonuclease A excludes the possibility of the presence of a RNA fragment attached to the peptide.
(§5) A summary of the above described treatments by catabolic enzymes is provided in the following TABLE III, and the results of the treatment are shown in FIG. 5, wherein “−” represents no substantial alteration of the stainable bands and “+” represents substantial alteration of the stainable bands.

[3] = test system: Calf thymus alkaline phosphatase (CIAP); test: Treatment of Product R with alkaline phosphatase, SDS-PAGE on a 16% gel; type: physicochemical; design: key to Sensitivity of the Peptide Components of Product R (SDS-PAGE): Alkaline Phosphatase (200 units/ml): “−” represents no substantial alteration of the stainable bands; “+” represents substantial alteration of the stainable bands; conditions: 200 units/ml CIAP, 37° C., about one hour
Procedure: as §4
The treatment with alkaline phosphatase (Life Technologies, USA): Calf thymus alkaline phosphatase (CIAP) is a phosphomonoesterase that hydrolyses 5′-phosphate groups from DNA, RNA and nucleotides. A Product R sample is incubated in a reaction buffer provided by the manufacturer of the enzyme and 200 units/ml CIAP at 37° C. for about one hour and subjected to SDS-PAGE on a 16% gel.
as §5

[4] = test system: MCP-1 secretion by U937 cells; test: MCP-1 secretion by cultured U937 cells, ELISA; type: cell-based, human; conditions: for production of monocyte chemotactic protein 1 (MCP-1) in U937 cells: general statement; for up-regulation of MCP-1 secretion compared with Product R: peptide solutions 2 mg/ml, equimolar mixture 4 mg/ml, final concentration 10% in culture media, FIG. 20
Procedure: as §1, §2
U937 cell culture: The U937 human hystiocytic lymphoma cell line was purchased from the American Type Culture Collection. […]
Product R or isolated peptide treatment: Cells (1.0×10^5/ml) are cultured in growth medium containing Product R, isolated purified peptide solution, mixed peptides solution or Dulbecco's PBS for 2 days. Following centrifugation, the culture supernatants are analyzed using chemokine ELISA kits. […]
as §3

[5] = target: T2, chymotrypsin (Bos taurus, UniProt P00766); test: Treatment of Product R with chymotrypsin, SDS-PAGE on a 16% gel; type: physicochemical; design: key to Sensitivity of the Peptide Components of Product R (SDS-PAGE): Chymotrypsin (250 μg/ml): “−” represents no substantial alteration of the stainable bands; “+” represents substantial alteration of the stainable bands; conditions: 250 μg/ml chymotrypsin, 25° C., 19 hours
T2 construct: purchased Boehringer Mannheim, USA
Procedure: as §4
The treatment with chymotrypsin (Boehringer Mannheim, USA):Chymotrypsin is a serine protease that specifically hydrolyses the peptide bonds of tyrosine, phenylalanine and tryptophan at C-terminals. It also cleaves peptide bonds of leucine, methionine, alanine, aspartic acid and glutamic acid at C-terminals at relatively lower rates. A Product R sample is incubated in a reaction buffer containing 100 mM Tris-HCl, pH 7.6, 10 mM CaCl2 and 250 μg/ml of sequencing grade chymotrypsin at 25° C. for 19 hours and then subject to SDS-PAGE on a 16% gel.
as §5

Question: Which “production of interlukin-8 (IL-8) in U937 cells” value [1] does the source give for “KVLPVPQKAVPYPQRDMPIQAFLLYQEPVLG [Peptide-A, 31-amino-acid long peptide derived from bovine beta-casein, constituent of Product R]” here?
Answer: The value was “capable of inducing the production”.

Question: And the “up-regulation of IL-8 secretion compared with Product R” value [1]?
Answer: The value was “only elicited a less response”.

Question: What about the “Sensitivity of the Peptide Components of Product R (SDS-PAGE): Ribonuclease A (1 mg/ml)” value [2] of the same sequence?
Answer: Its value is “−”.

Question: What about the “Sensitivity of the Peptide Components of Product R (SDS-PAGE): Alkaline Phosphatase (200 units/ml)” value [3] of the same sequence?
Answer: The value was “−”.

Question: What about the “production of monocyte chemotactic protein 1 (MCP-1) in U937 cells” value [4] of the same sequence?
Answer: The value was “capable of inducing the production”.

Question: And the “up-regulation of MCP-1 secretion compared with Product R” value [4]?
Answer: Its value is “failed to elicit a response same as that of Product R”.

Question: What about the “Sensitivity of the Peptide Components of Product R (SDS-PAGE): Chymotrypsin (250 μg/ml)” value [5] of the same sequence?
Answer: The value was “+”.

Question: And the “change of band intensity after chymotrypsin treatment” value [5]?
Answer: The value was “significantly reduces the intensity”.

Question: How did the “production of interlukin-8 (IL-8) in U937 cells” value [1] turn out when “GEIPDAGGRIVDYYVGFSDSV (not fully specified (residue 18)) [Peptide-B, 21-amino acid peptide linked at serine 18 through a diphosphodiester group to the 3′-end of an adenylyl (3′-5′) adenosine moiety]” was run?
Answer: Its value is “capable of inducing the production; also recorded: contributes more to the activity than peptide-A”.

Question: And the “up-regulation of IL-8 secretion compared with Product R” value ([1]; listed as Peptide B)?
Answer: The value was “maintained most of the ability of Product R to up-regulate IL-8 secretion”.

Question: And the “up-regulation of IL-8 secretion compared with Product R” value ([1]; listed as peptide-B)?
Answer: The value was “induces higher levels of secretion of IL-8 or MCP-1 than peptide-A”.

Question: What about the “Sensitivity of the Peptide Components of Product R (SDS-PAGE): Ribonuclease A (1 mg/ml)” value [2] of the same sequence?
Answer: The value was “−”.

Question: And the “Sensitivity of the Peptide Components of Product R (SDS-PAGE): Alkaline Phosphatase (200 units/ml)” value [3]?
Answer: The value was “−”.

Question: What about the “change of band intensity / hydrolysis by alkaline phosphatase” value [3] of the same sequence?
Answer: Its value is “resistance”.

Question: And the “production of monocyte chemotactic protein 1 (MCP-1) in U937 cells” value [4]?
Answer: Its value is “capable of inducing the production; also recorded: contributes more to the activity than peptide-A”.

Question: And the “up-regulation of MCP-1 secretion compared with Product R” value ([4]; listed as peptide-B)?
Answer: Its value is “failed to elicit a response same as that of Product R; also recorded: slightly more active than peptide A; also recorded: induces higher levels of secretion of IL-8 or MCP-1 than peptide-A”.

Question: What about the “Sensitivity of the Peptide Components of Product R (SDS-PAGE): Chymotrypsin (250 μg/ml)” value [5] of the same sequence?
Answer: The value was “−”.

Question: And the “change of band intensity after chymotrypsin treatment” value [5]?
Answer: Its value is “no apparent effect”.
